Source: ChEMBL document CHEMBL4330092, “Optimization of Vinyl Sulfone Derivatives as Potent Nuclear Factor Erythroid 2-Related Factor 2 (Nrf2) Activators for Parkinson's Disease Therapy” (J Med Chem, 2019)

Legend:
[1] = Aqueous solubility of the compound; assay type: physicochemical; conditions: aqueous medium
[2] = Dissociation constant, pKa of the compound; assay type: physicochemical
[3] = Tmax in rat at 10 mg/kg, po; assay type: ADME, organism-based; conditions: in vivo
[4] = Oral bioavailability in rat at 10 mg/kg; assay type: ADME, organism-based; conditions: in vivo
[5] = Lipophilicity, log P of the compound; assay type: physicochemical; conditions: octanol/water

| solubility [1] [mg/mL] | pKa [2] | Tmax [3] [min] | bioavailability [4] [%] | logP [5] | Compound |
| --- | --- | --- | --- | --- | --- |
| < 0.01 | – | – | – | – | COc1ccccc1S(=O)(=O)/C=C/c1ccccc1Cl |
| > 30 | 7.58 | 24 | 45.3 | 2.29 | Cl.O=S(=O)(/C=C/c1ncccc1F)c1ccc(OCCCN2CCOCC2)cc1 |
